These results are taken from US8093406B2, “Cyclic sulfones with aminobenzyl substitution useful as BACE inhibitors” (Novartis AG, priority 2008, dated 2012).

Structures can show the parent of a compound that is named as a salt.

The assay deals with T1, Human BACE (Homo sapiens, UniProt P56817).
T1 construct: Recombinant BACE (extracellular domain, expressed in baculovirus and purified using standard methods); made in house
As to the kind of experiment: Test 1: Inhibition of Human BACE. In kind it is biochemical. As to conditions: Test 1; recombinant BACE extracellular domain, acetate buffer pH 4.5, 1 hour incubation at room temperature, fluorescence-quenched APP-derived peptide substrate; read-out: Bace IC50. The protocol: Test 1: Inhibition of Human BACE
Recombinant BACE (extracellular domain, expressed in baculovirus and purified using standard methods) at 0.1 to 10 nM concentrations is incubated with the test compound at various concentrations for 1 hour at room temperature in 10 to 100 mM acetate buffer, pH 4.5, containing 0.1% CHAPS. […] IC50 values are calculated from percentage of inhibition of BACE-activity as a function of the test compound concentration.

T1 sequence (P56817 46-457 limits assumed): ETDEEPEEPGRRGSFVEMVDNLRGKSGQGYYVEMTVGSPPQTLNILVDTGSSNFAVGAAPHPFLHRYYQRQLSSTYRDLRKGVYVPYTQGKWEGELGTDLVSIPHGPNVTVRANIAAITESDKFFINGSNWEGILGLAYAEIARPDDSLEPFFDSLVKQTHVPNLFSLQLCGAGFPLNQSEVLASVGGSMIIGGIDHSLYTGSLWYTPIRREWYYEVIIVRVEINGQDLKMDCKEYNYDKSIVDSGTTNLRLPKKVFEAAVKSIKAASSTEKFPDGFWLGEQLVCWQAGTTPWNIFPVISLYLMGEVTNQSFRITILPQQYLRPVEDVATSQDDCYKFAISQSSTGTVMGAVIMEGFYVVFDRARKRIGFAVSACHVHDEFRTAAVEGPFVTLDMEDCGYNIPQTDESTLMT

A word on the IC50: it is the concentration that inhibits the measured activity by half. On to `CN(C)CCNc1ccc(C[C@@H]2CS(=O)(=O)C[C@H](NCc3cccc(C(C)(C)C)c3)[C@H]2O)cc1F` (racemic) [Example 7, (3R*,4S*,5S*)-3-(3-tert-Butyl-benzylamino)-5-[4A2-dimethylamino-ethyl-amino)-3-fluoro-benzyl]-1,1-dioxo-hexahydro-1lambda*6*-thiopyran-4-ol], for which the IC50 was 8400 nM.

Turning to `CCCCNC(=O)c1cc(C[C@@H]2CS(=O)(=O)C[C@H](NCc3cccc(C(C)(C)C)c3)[C@H]2O)ccc1N` (racemic) [Example 18, 2-Amino-N-butyl-5-[3S*,4S*,5R*)-5-(3-tert-butyl-benzylamino)-4-hydroxy-1,1-dioxo-hexahydro-1lambda*6*-thiopyran-3-ylmethyl]-benzamide], the IC50 is 38 nM.

Regarding `CCNCc1cc(C[C@@H]2CS(=O)(=O)C[C@H](NCc3cccc(C(C)(C)C)c3)[C@H]2O)cc(F)c1N` (relative stereo) [Example 3, (3S*,4S*,5R*)-3-(4-Amino-3-ethylaminomethyl-5-fluoro-benzyl)-5-(3-tert-butyl-benzylamino)-1,1-dioxo-hexahydro-1lambda*6*-thiopyran-4-ol hydrochloride], the IC50 was determined as 1140 nM.

For `CC(C)(C)c1cccc(CN[C@H]2CS(=O)(=O)C[C@@H](Cc3cc(F)c(N)c(N4CCCC4=O)c3)[C@@H]2O)c1` (relative stereo) [Example 4, 1-{2-Amino-5-[(3S*,4S*,5R*)-5-(3-tert-butyl-benzylamino)-4-hydroxy-1,1-dioxo-hexahydro-1lambda*6*-thiopyran-3-ylmethyl]-3-fluoro-phenyl}-pyrrolidin-2-one di-trifluoroacetate], the IC50 amounted to 326 nM.

Turning to `CC(C)(C)c1cccc(CN[C@H]2CS(=O)(=O)C[C@@H](Cc3cc(F)c(N)c(N4CCC4=O)c3)[C@@H]2O)c1` (relative stereo) [Example 5, 1 {2-Amino-5-[(3S*,4S*,5R*)-5-(3-tert-butyl-benzylamino)-4-hydroxy-1,1-dioxo-hexahydro-1lambda*6*-thiopyran-3-ylmethyl]-3-fluoro-phenyl}-azetidin-2-one], the IC50 was determined as 4700 nM.

With `CCNCC(=O)Nc1c(F)cc(C[C@@H]2CS(=O)(=O)C[C@H](NCc3cccc(C(C)(C)C)c3)[C@H]2O)cc1CC` [Example 8, N-{4-[(3S,4S,5R)-5-(3-tert-Butyl-benzylamino)-4-hydroxy-1,1-dioxo-hexahydro-1lambda*6*-thiopyran-3-ylmethyl]-2-ethyl-6-fluoro-phenyl}-2-ethylamino-acetamide dihydrochloride], the IC50 came to 42 nM.

As for `CCc1cc(C[C@@H]2CS(=O)(=O)C[C@H](NCc3cccc(C(C)(C)C)c3)[C@H]2O)cc(F)c1NC(=O)COC` [Example 10, N-{4-[(3S,4S,5R)-5-(3-tert-Butyl-benzylamino)-4-hydroxy-1,1-dioxo-hexa-hydro-1lambda*6*-thiopyran-3-ylmethyl]-2-ethyl-6-fluoro-phenyl}-2-methoxy-acetamide hydrochloride], the IC50 is 48 nM.

As for `CN(C)CC(=O)Nc1c(F)cc(C[C@@H]2CS(=O)(=O)C[C@H](NCc3cccc(C(C)(C)C)c3)[C@H]2O)cc1Cl` [Example 11, N-{4-[(3S,4S,5R)-5-(3-tert-Butyl-benzylamino)-4-hydroxy-1,1-dioxo-hexa-hydro-1lambda*6*-thiopyran-3-ylmethyl]-2-chloro-6-fluoro-phenyl}-2-dimethylamino-acetamide dihydrochloride], the IC50 amounted to 74 nM.

Take `CCNCC(=O)Nc1c(F)cc(C[C@@H]2CS(=O)(=O)C[C@H](NCc3cccc(C(C)(C)C)c3)[C@H]2O)cc1Cl` [Example 12]: the half-inhibitory concentration (IC50) was 20 nM.

On to `CNCC(=O)Nc1c(F)cc(C[C@@H]2CS(=O)(=O)C[C@H](NCc3cccc(C(C)(C)C)c3)[C@H]2O)cc1Cl` [Example 13], for which the half-inhibitory concentration (IC50) was 28 nM.

For `CC(C)(C)c1cccc(CN[C@H]2CS(=O)(=O)C[C@@H](Cc3cc(F)c(NC(=O)CNC4CC4)c(Cl)c3)[C@@H]2O)c1` [Example 14, N-{4-[(3S,4S,5R)-5-(3-tert-butyl-benzylamino)-4-hydroxy-1,1-dioxo-hexa-hydro-1lambda*6*-thiopyran-3-ylmethyl]-2-chloro-6-fluoro-phenyl}-2-cyclopropylamino-acetamide], the concentration for half-maximal inhibition (IC50) is 22 nM.

In the case of `CC(C)(C)NCC(=O)Nc1c(F)cc(C[C@@H]2CS(=O)(=O)C[C@H](NCc3cccc(C(C)(C)C)c3)[C@H]2O)cc1Cl` [Example 15], the half-maximal inhibitory concentration (IC50) was found to be 50 nM.

In the case of `CC(C)(C)c1cccc(CN[C@H]2CS(=O)(=O)C[C@@H](Cc3cc(F)c(NC(=O)CN4CCCCC4)c(Cl)c3)[C@@H]2O)c1` [Example 16], the IC50 turned out to be 34 nM.

Consider `CC(C)(C)c1cccc(CN[C@H]2CS(=O)(=O)C[C@@H](Cc3cc(F)c(NCCNC4CC4)c(Cl)c3)[C@@H]2O)c1` [Example 17, (3R,4S,5S)-3-(3-tert-Butyl-benzylamino)-5-[3-chloro-4-(2-cyclopropyl-amino-ethylamino)-5-fluoro-benzyl]-1,1-dioxo-hexahydro-1lambda*6*-thiopyran-4-ol hydrochloride], for which the IC50 was determined as 1760 nM.

Consider `CCNC(=O)c1cc(CC2CS(=O)(=O)CC(NCc3cccc(C(C)(C)C)c3)C2O)ccc1N` (stereo not drawn) [Example 19], for which the IC50 came out at 26 nM.

As for `CCCNC(=O)c1cc(CC2CS(=O)(=O)CC(NCc3cccc(C(C)(C)C)c3)C2O)ccc1N` (stereo not drawn) [Example 20], the IC50 was 151 nM.

For `CC(C)(C)c1cccc(CNC2CS(=O)(=O)CC(Cc3ccc(N)c(C(=O)NCC4CC4)c3)C2O)c1` (stereo not drawn) [Example 21], the IC50 is 8 nM.

On to `CC(C)(C)c1cccc(CNC2CS(=O)(=O)CC(Cc3ccc(N)c(C(=O)NCCF)c3)C2O)c1` (stereo not drawn) [Example 22], for which the IC50 was found to be 46 nM.

For the molecule `CC(C)(C)c1cccc(CNC2CS(=O)(=O)CC(Cc3ccc(N)c(C(=O)NCC(F)(F)F)c3)C2O)c1` (stereo not drawn) [Example 23], the IC50 turned out to be 175 nM.

With `CN(C)CC(=O)Nc1c(F)cc(C[C@@H]2CS(=O)(=O)C[C@H](NCc3cccc(C(C)(C)C)c3)[C@H]2O)cc1OCC(F)(F)F` [Example 26, N-[4-[(3S,4S,5R)-5-(3-tert-Butyl-benzylamino)-4-hydroxy-1,1-dioxo-hexahydro-1lambda*6*-thiopyran-3-ylmethyl]-2-fluoro-6-(2,2,2-trifluoro-ethoxy)-phenyl]-2-dimethylamino-acetamide dihydrochloride], the IC50 was 7 nM.

For the molecule `CCNCC(=O)Nc1c(F)cc(C[C@@H]2CS(=O)(=O)C[C@H](NCc3cccc(C(C)(C)C)c3)[C@H]2O)cc1OCC(F)(F)F` [Example 27], the IC50 was found to be 3 nM.

For `CC(C)(C)c1cccc(CN[C@H]2CS(=O)(=O)C[C@@H](Cc3cc(F)c(NC(=O)CN4CCC4)c(OCC(F)(F)F)c3)[C@@H]2O)c1` [Example 28], the half-inhibitory concentration (IC50) came out at 7 nM.

Consider `CC(C)(C)c1cccc(CN[C@H]2CS(=O)(=O)C[C@@H](Cc3cc(F)c(NC(=O)CN4CCCCC4)c(OCC(F)(F)F)c3)[C@@H]2O)c1` [Example 29], for which the IC50 stood at 5 nM.

Turning to `C[Si](C)(C)c1cccc(CN[C@H]2CS(=O)(=O)C[C@@H](Cc3cc(F)c(N)c(OC(C(F)(F)F)C(F)(F)F)c3)[C@@H]2O)c1` [Example 31, (3S,4S,5R)-3-[4-Amino-3-fluoro-5-(2,2,2-trifluoro-1-trifluoromethyl-ethoxy)-benzyl]-1,1-dioxo-5-(3-trimethylsilanyl-benzylamino)-hexahydro-1lambda*6*-thiopyran-4-ol], the half-inhibitory concentration (IC50) was determined as 22 nM.
